From ChEMBL document CHEMBL1909294, “Translating clinical findings into knowledge in drug safety evaluation--drug induced liver injury prediction system (DILIps)” (PLoS Comput Biol, 2011)

Tests used:
[1] = system: Hepatotoxicity;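 for HepSE bilirubinemia: bilirubinemia hepatic side effect score drawn from the DILIps training data, a prediction system for drug-induced liver injury; call rule not given here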;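 for HepSE cholecystitis: Cholecystitis-related hepatic side effect score drawn from the DILIps (drug-induced liver injury prediction) training data set; call rule not given here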;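 for HepSE cholelithiasis: hepatic side effect score for cholelithiasis, drawn from the DILIps training data for predicting drug-induced liver injury; call rule not given here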;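 for HepSE cirrhosis: cirrhosis hepatic side effect score taken from the DILIps (drug-induced liver injury prediction) training set; call rule not given here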;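 for HepSE elevated liver function tests: hepatic side effect score for raised liver function tests, as recorded in the DILIps training set used for predicting drug-induced liver injury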; for HepSE hepatic failure: call rule not given here;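 for HepSE hepatomegaly: hepatic side effect score for hepatomegaly, taken from the training set of the DILIps drug-induced liver injury prediction system; call rule not given here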
[2] = system: Hepatotoxicity; remark: listed apart in the source;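 for HepSE bilirubinemia: bilirubinemia hepatic side effect score drawn from the DILIps training data, a prediction system for drug-induced liver injury; call rule not given here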;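 for HepSE cholecystitis: Cholecystitis-related hepatic side effect score drawn from the DILIps (drug-induced liver injury prediction) training data set; call rule not given here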;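 for HepSE cholelithiasis: hepatic side effect score for cholelithiasis, drawn from the DILIps training data for predicting drug-induced liver injury; call rule not given here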;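 for HepSE cirrhosis: cirrhosis hepatic side effect score taken from the DILIps (drug-induced liver injury prediction) training set; call rule not given here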;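 for HepSE elevated liver function tests: hepatic side effect score for raised liver function tests, as recorded in the DILIps training set used for predicting drug-induced liver injury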; for HepSE hepatic failure: call rule not given here
[3] = system: Hepatotoxicity; remark: listed apart in the source;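 for HepSE bilirubinemia: bilirubinemia hepatic side effect score drawn from the DILIps training data, a prediction system for drug-induced liver injury; call rule not given here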;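 for HepSE cholecystitis: Cholecystitis-related hepatic side effect score drawn from the DILIps (drug-induced liver injury prediction) training data set; call rule not given here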;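 for HepSE cholelithiasis: hepatic side effect score for cholelithiasis, drawn from the DILIps training data for predicting drug-induced liver injury; call rule not given here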;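 for HepSE cirrhosis: cirrhosis hepatic side effect score taken from the DILIps (drug-induced liver injury prediction) training set; call rule not given here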;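 for HepSE elevated liver function tests: hepatic side effect score for raised liver function tests, as recorded in the DILIps training set used for predicting drug-induced liver injury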; for HepSE hepatic failure: call rule not given here
[4] = system: Hepatotoxicity; remark: listed apart in the source;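 for HepSE bilirubinemia: bilirubinemia hepatic side effect score drawn from the DILIps training data, a prediction system for drug-induced liver injury; call rule not given here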;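 for HepSE cholecystitis: Cholecystitis-related hepatic side effect score drawn from the DILIps (drug-induced liver injury prediction) training data set; call rule not given here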;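 for HepSE cholelithiasis: hepatic side effect score for cholelithiasis, drawn from the DILIps training data for predicting drug-induced liver injury; call rule not given here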;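 for HepSE cirrhosis: cirrhosis hepatic side effect score taken from the DILIps (drug-induced liver injury prediction) training set; call rule not given here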;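 for HepSE elevated liver function tests: hepatic side effect score for raised liver function tests, as recorded in the DILIps training set used for predicting drug-induced liver injury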; for HepSE hepatic failure: call rule not given here
[5] = system: Hepatotoxicity; remark: listed apart in the source; for HepSE hepatic failure: call rule not given here
[6] = system: Hepatotoxicity; remark: listed apart in the source; for HepSE hepatic failure: call rule not given here
[7] = system: Hepatotoxicity; remark: listed apart in the source
[8] = system: Hepatotoxicity; remark: listed apart in the source
[9] = system: Hepatotoxicity; remark: listed apart in the source
[10] = system: Hepatotoxicity; remark: listed apart in the source
[11] = system: Hepatotoxicity; remark: listed apart in the source
[12] = system: Hepatotoxicity; remark: listed apart in the source
[13] = system: Hepatotoxicity; remark: listed apart in the source
[14] = system: Hepatotoxicity; remark: listed apart in the source

Row | Compound | HepSE_bilirubinemia [1] | HepSE_cholecystitis [2] | HepSE_cholelithiasis [3] | HepSE_cirrhosis [4] | HepSE_elevated liver function tests [5] | HepSE_hepatic failure [6] | HepSE_hepatic necrosis [7] | HepSE_hepatitis [8] | HepSE_hepatomegaly [9] | HepSE_jaundice [10] | HepSE_liver disease [11] | HepSE_liver fatty [12] | HepSE_liver function tests abnormal [13] | HepSE_Combined Scores [14] | further results
1 | Oc1ccc2c(c1)[C@@]13CCCC[C@@]1(O)[C@@H](C2)N(CC1CCC1)CC3 [BUTORPHANOL] | 0 | 0 | 0 | 0 | 0 | 0 | 0 | 0 | 0 | 0 | 0 | 0 | 0 | 0 | 
2 | CCNC(=O)CCC/C=C\C[C@@H]1[C@@H](/C=C/[C@@H](O)CCc2ccccc2)[C@H](O)C[C@@H]1O [BIMATOPROST] | 0 | 0 | 0 | 0 | 0 | 0 | 0 | 0 | 0 | 0 | 0 | 0 | 1 | 1 | 
3 | CCCCc1ncc(/C=C(\Cc2cccs2)C(=O)O)n1Cc1ccc(C(=O)O)cc1 [EPROSARTAN] | 0 | 0 | 0 | 0 | 0 | 0 | 0 | 0 | 0 | 0 | 0 | 0 | 0 | 0 | 
4 | CCCC(C)(COC(N)=O)COC(N)=O [MEPROBAMATE] | 0 | 0 | 0 | 0 | 0 | 0 | 0 | 0 | 0 | 0 | 0 | 0 | 0 | 0 | 
5 | CC(=O)CC(c1ccccc1)c1c(O)c2ccccc2oc1=O (stereo not drawn) [WARFARIN] | 0 | 0 | 0 | 0 | 0 | 0 | 0 | 1 | 0 | 1 | 0 | 0 | 0 | 2 | 
6 | Cc1ccc(-c2nc3ccc(C)cn3c2CC(=O)N(C)C)cc1 [ZOLPIDEM] | 1 | 0 | 0 | 0 | 0 | 0 | 0 | 0 | 0 | 0 | 0 | 0 | 0 | 1 | 
7 | CCN(CCO)CCCC(C)Nc1ccnc2cc(Cl)ccc12 (stereo not drawn) [HYDROXYCHLOROQUINE] | 0 | 0 | 0 | 0 | 0 | 1 | 0 | 0 | 0 | 0 | 0 | 0 | 0 | 1 | 
8 | C[C@@H]1C[C@H]2[C@@H]3C[C@H](F)C4=CC(=O)C=C[C@]4(C)[C@@]3(F)[C@@H](O)C[C@]2(C)[C@@]1(O)C(=O)CO [FLUMETHASONE] | 0 | 0 | 0 | 0 | 0 | 0 | 0 | 0 | 0 | 0 | 0 | 0 | 0 | 0 | 
9 | c1ccc2[nH]c(-c3cscn3)nc2c1 [THIABENDAZOLE] | 0 | 0 | 0 | 0 | 0 | 1 | 0 | 0 | 0 | 1 | 0 | 0 | 0 | 2 | 
10 | COc1c(C)c2c(c(O)c1C/C=C(\C)CCC(=O)O)C(=O)OC2 [MYCOPHENOLIC ACID] | 1 | 0 | 0 | 0 | 0 | 0 | 0 | 1 | 0 | 1 | 1 | 0 | 1 | 5 | 
11 | CC(C)N(CCC(C(N)=O)(c1ccccc1)c1ccccn1)C(C)C (stereo not drawn) [DISOPYRAMIDE] | 0 | 0 | 0 | 0 | 0 | 0 | 0 | 0 | 0 | 1 | 0 | 0 | 0 | 1 | 
12 | CCC(C)n1ncn(-c2ccc(N3CCN(c4ccc(OCC5COC(Cn6cncn6)(c6ccc(Cl)cc6Cl)O5)cc4)CC3)cc2)c1=O (stereo not drawn) [ITRACONAZOLE] | 1 | 0 | 0 | 1 | 0 | 1 | 0 | 1 | 0 | 1 | 1 | 0 | 1 | 7 | 
13 | GADOBUTROL | 0 | 0 | 0 | 0 | 0 | 0 | 0 | 0 | 0 | 0 | 0 | 0 | 0 | 0 | 
14 | CC(C)(Oc1ccc(CCNC(=O)c2ccc(Cl)cc2)cc1)C(=O)O [BEZAFIBRATE] | 0 | 0 | 1 | 0 | 0 | 0 | 0 | 0 | 0 | 0 | 0 | 0 | 0 | 1 | 
15 | CC(=O)[C@@]1(O)CC[C@H]2[C@@H]3C[C@H](C)C4=CC(=O)CC[C@]4(C)[C@H]3CC[C@@]21C |  |  |  |  |  |  |  |  |  |  |  |  |  |  | HepSE_bilirubinemia ([1]; Liver): 0; HepSE_cholecystitis ([2]; Liver): 0; HepSE_cholelithiasis ([3]; Liver): 1; HepSE_cirrhosis ([4]; Liver): 0; HepSE_elevated liver function tests ([5]; Liver): 0; HepSE_hepatic failure ([6]; Liver): 1; HepSE_hepatic necrosis ([7]; Liver): 0; HepSE_hepatitis ([8]; Liver): 1; HepSE_hepatomegaly ([9]; Liver): 1; HepSE_jaundice ([10]; Liver): 1; HepSE_liver disease ([11]; Liver): 0; HepSE_liver fatty ([12]; Liver): 0; HepSE_liver function tests abnormal ([13]; Liver): 0; HepSE_Combined Scores ([14]; Liver): 5
16 | CN(C)[C@@H]1C(O)=C(C(N)=O)C(=O)[C@@]2(O)C(O)=C3C(=O)c4c(O)cccc4[C@@](C)(O)[C@H]3C[C@@H]12 [TETRACYCLINE] | 0 | 0 | 0 | 0 | 0 | 1 | 0 | 0 | 0 | 0 | 0 | 0 | 0 | 1 | 
17 | COc1ccc(C(=O)Nc2ccccc2CCC2CCCCN2C)cc1 (stereo not drawn) [ENCAINIDE] | 0 | 0 | 0 | 0 | 0 | 0 | 0 | 1 | 0 | 1 | 0 | 0 | 0 | 2 | 
